Assay results published in US20210198277A1, “AMINE-SUBSTITUTED ARYL OR HETEROARYL COMPOUNDS” (Epizyme, Inc., priority 2016, published 2021).

Columns and labels:
[1] = target: T1, EHMT1 (Homo sapiens, UniProt Q9H9B1); experiment: EHMT1 enzyme assay on peptide substrate (EHMT1 PEP); type: biochemical; details: Table VI; read-out: EHMT1 PEP IC50
T1 sequence (Q9H9B1 1-1298): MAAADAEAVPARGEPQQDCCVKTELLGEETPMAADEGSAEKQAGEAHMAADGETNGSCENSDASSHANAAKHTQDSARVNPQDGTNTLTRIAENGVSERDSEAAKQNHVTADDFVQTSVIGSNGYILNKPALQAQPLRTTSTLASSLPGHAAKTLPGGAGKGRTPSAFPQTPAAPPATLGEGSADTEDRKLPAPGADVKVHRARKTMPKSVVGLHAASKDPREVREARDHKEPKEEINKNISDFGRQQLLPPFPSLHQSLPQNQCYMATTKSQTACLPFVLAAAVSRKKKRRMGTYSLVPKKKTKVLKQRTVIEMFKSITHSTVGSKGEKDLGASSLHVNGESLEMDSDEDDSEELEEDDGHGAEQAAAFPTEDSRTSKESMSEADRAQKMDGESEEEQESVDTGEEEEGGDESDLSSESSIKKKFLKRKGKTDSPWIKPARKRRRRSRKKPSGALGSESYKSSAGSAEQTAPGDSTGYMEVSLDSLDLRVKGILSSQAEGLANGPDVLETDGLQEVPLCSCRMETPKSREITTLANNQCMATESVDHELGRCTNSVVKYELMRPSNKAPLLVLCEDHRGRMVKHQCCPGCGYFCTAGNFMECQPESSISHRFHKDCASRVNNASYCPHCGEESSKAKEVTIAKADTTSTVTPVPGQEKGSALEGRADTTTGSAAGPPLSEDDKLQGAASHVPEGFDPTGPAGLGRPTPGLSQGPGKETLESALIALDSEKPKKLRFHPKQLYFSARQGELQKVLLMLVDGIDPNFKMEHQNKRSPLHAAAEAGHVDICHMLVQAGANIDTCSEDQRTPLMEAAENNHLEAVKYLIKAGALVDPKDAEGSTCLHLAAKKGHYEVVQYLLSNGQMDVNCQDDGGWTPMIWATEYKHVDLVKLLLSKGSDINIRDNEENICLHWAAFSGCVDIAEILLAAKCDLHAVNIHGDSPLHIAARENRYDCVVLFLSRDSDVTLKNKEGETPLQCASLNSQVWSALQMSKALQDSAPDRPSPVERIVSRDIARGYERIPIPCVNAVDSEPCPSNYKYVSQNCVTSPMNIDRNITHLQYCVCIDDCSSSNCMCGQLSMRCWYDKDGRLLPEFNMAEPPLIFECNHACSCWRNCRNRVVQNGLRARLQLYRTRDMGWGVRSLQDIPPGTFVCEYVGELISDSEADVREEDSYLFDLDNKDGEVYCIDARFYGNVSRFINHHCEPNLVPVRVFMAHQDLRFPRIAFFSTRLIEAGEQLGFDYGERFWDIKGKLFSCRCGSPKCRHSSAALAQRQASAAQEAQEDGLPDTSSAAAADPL

[2] = target: T2, human EHMT2 913-1193 (Homo sapiens, UniProt Q96KQ7); experiment: EHMT2 enzyme assay on histone peptide substrate (EHMT2 PEP); type: biochemical; details: Table VI; read-out: EHMT2 PEP IC50
T2 construct: recombinant purified human EHMT2 913-1193, Viva; purchased Viva
T2 sequence (Q96KQ7 913-1193): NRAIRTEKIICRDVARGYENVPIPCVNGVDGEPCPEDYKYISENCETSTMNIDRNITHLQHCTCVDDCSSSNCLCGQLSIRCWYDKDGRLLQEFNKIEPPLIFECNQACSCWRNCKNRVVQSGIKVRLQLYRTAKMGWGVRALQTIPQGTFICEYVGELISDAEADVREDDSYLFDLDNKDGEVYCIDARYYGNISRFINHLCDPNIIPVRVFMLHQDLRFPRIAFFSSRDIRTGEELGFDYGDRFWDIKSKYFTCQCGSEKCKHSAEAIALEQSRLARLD
Summary of the method: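 Inhibition is measured as reduced tritium incorporation into a biotinylated histone peptide from ^3H-SAM. The enzyme (0.031 nM) sees compound for 30 minutes before a 60-minute room-temperature reaction, which unlabeled SAM quenches prior to streptavidin Flashplate capture.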

Row | Structure (SMILES) | IC50 [1] | IC50 [2]
1 | COc1cc(NC2CCNCC2)ncc1OCC1CCN(C)C1 (stereo not drawn) [Compound 604] | 0.1 to 1 µM | 0.1 to 1 µM
2 | COc1nc(NC2CCNCC2)ncc1OCC1CCN(C)C1 (stereo not drawn) [Compound 605] | > 10 µM | > 10 µM
3 | CCN1CC(COc2cc(Nc3nc(C)cc4[nH]ncc34)ncc2OC)C1 [Compound 607] | < 0.1 µM | 0.1 to 1 µM
4 | CNc1cc(C)nc(Nc2cc(OCCCN3CCCC3)n3cnnc3c2)n1 [Compound 628] | > 10 µM | > 10 µM
5 | COc1cc(NC2CCNCC2)ncc1OCC1CCNC1 (stereo not drawn) [Compound 629] | < 0.1 µM | 0.1 to 1 µM
6 | CCc1nc(NC2CCNCC2)ncc1OCC1CCN(C)C1 (stereo not drawn) [Compound 630] | > 10 µM | > 10 µM
7 | CCc1nc(NC2CCNCC2)ncc1OCC1CN(C(C)C)C1 [Compound 631] | > 10 µM | > 10 µM
8 | CN1CCC(Nc2ncc(OCC3CCN(C)C3)cn2)CC1 (stereo not drawn) [Compound 632] | > 10 µM | > 10 µM
9 | CN1CCC(COc2cnc(N(C)C3CCNCC3)nc2)C1 (stereo not drawn) [Compound 633] | > 10 µM | > 10 µM
10 | COc1cc(N(C)C2CCNCC2)ncc1OCC1CCN(C)C1 (stereo not drawn) [Compound 634] | 0.1 to 1 µM | 0.1 to 1 µM
11 | COc1cc(N(C)C2CCNCC2)ncc1OCC1CCN(C)C1 (stereo not drawn) [Compound 635] | 1 to 10 µM | 1 to 10 µM
12 | CC(C)N1CC(COc2cnc(NC3CCNCC3)nc2)C1 [Compound 636] | > 10 µM | > 10 µM
13 | CC(C)N1CC[C@@H](COc2cnc(N(C)C3CCNCC3)nc2)C1 [Compound 637] | > 10 µM | > 10 µM
14 | COc1cnc(Nc2cccn3cncc23)cc1OCCCN1CCCC1 [Compound 638] | > 10 µM | > 10 µM
15 | COc1cnc(NC(=O)/C=C/CN(C)C)cc1OCCCN1CCCC1 [Compound 640] | > 10 µM | > 10 µM
16 | CNc1cc(C)nc(Nc2cnc(OC)c(OC[C@@H]3CCNC3)c2)n1 [Compound 641] | < 0.1 µM | < 0.1 µM
17 | COc1cc(Nc2ccc3[nH]ncc3c2)ncc1OCCCN1CCCC1 [Compound 643] | > 10 µM | > 10 µM
18 | CNc1cc(C)nc(Nc2ccc(OC)c(CNCCN3CCCC3)c2)n1 [Compound 644, 2-N-[4-methoxy-3-([[2-(pyrrolidin-1-yl)ethyl]amino]methyl)phenyl]-4-N,6-dimethylpyrimidine-2,4-diamine] | < 0.1 µM | < 0.1 µM
19 | CNc1cc(C)nc(Nc2ccc(OC)c(CN(C)CCN3CCCC3)c2)n1 [Compound 645] | 1 to 10 µM | > 10 µM
20 | CCN1CCC(NCc2cc(Nc3nc(C)cc(NC)n3)ccc2OC)C1 (stereo not drawn) [Compound 646] | 1 to 10 µM | 1 to 10 µM
21 | CCN1CC(NCc2cc(Nc3nc(C)cc(NC)n3)ccc2OC)C1 [Compound 647] | 1 to 10 µM | > 10 µM
22 | COc1cc(Nc2ccc3[nH]ncc3n2)ncc1OCCCN1CCCC1 [Compound 648] | 1 to 10 µM | 1 to 10 µM
23 | CCN1CC([C@H](C)Oc2cc(Nc3nc(C)cc(NC)n3)ccc2OC)C1 [Compound 649] | 0.1 to 1 µM | 0.1 to 1 µM
24 | CCN1CC(N(C)Cc2cc(Nc3nc(C)cc(NC)n3)ccc2OC)C1 [Compound 650] | > 10 µM | > 10 µM
25 | CCN1CCC(N(C)Cc2cc(Nc3nc(C)cc(NC)n3)ccc2OC)C1 (stereo not drawn) [Compound 651] | 1 to 10 µM | > 10 µM
26 | COc1cc2c(C3CCN(C)CC3)c(F)c(C)nc2cc1OCCCN1CCCC1 [Compound 652] | < 0.1 µM | 0.1 to 1 µM
27 | COc1cnc(Nc2cccc3nccn23)nc1OCCCN1CCCC1 [Compound 654] | > 10 µM | > 10 µM
28 | COc1cnc(Nc2cccc3[nH]ncc23)nc1OCCCN1CCCC1 [Compound 655] | > 10 µM | > 10 µM
29 | COc1cnc(Nc2cccc3nncn23)nc1OCCCN1CCCC1 [Compound 656] | > 10 µM | > 10 µM
30 | COc1cc2c(C3CCN(C)CC3)nc(C)nc2cc1OCCCN1CCCC1 [Compound 658] | 0.1 to 1 µM | 0.1 to 1 µM
